This passage reports GI50 and TGI results from PubChem BioAssay (NCI).

Where “and” joins values, the source holds several entries; their conditions need not be identical. Equal values may be shown once.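 Five concentrations, 48 hours, 96-well plates. GI50 = concentration required for 50% inhibition of growth. The concentration for full growth arrest is given as TGI.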 Some results are limits rather than exact numbers.

Among the test systems are A498 renal; HOP-62 NSCLC; K-562 leukemia; LOX IMVI melanoma; MOLT-4 leukemia; NCI/ADR-RES ovarian; OVCAR-8 ovarian; PC-3 prostate; SK-MEL-28 melanoma; TK-10 renal.
Holding throughout (experiment): growth of human tumour cells (NCI), 48 h

As to `COc1cc2nc(SCc3cc(OC)c(OC)c(OC)c3)n(Cc3ccccc3)c(=O)c2cc1OC`, the GI50 is 1.62 µM in the assay with A498 renal; 4.48 µM in the assay on HOP-62 NSCLC; 0.875 µM with K-562 leukemia; 4.35 µM with LOX IMVI melanoma; 3.81 µM with MOLT-4 leukemia; 2.33 µM in the assay with NCI/ADR-RES ovarian. The GI50 in the assay with OVCAR-8 ovarian is 6.71 µM; with PC-3 prostate it was 3.27 µM; with SK-MEL-28 melanoma it was 3.88 µM; with TK-10 renal, 10.8 µM. The TGI in the assay on A498 renal is 7.87 µM; with HOP-62 NSCLC it was 20.6 µM; in the assay with K-562 leukemia, above 100 µM; in the assay on LOX IMVI melanoma it was above 100 µM; in the assay with MOLT-4 leukemia, above 100 µM; in the assay with NCI/ADR-RES ovarian, 26.6 µM. Also, the TGI is above 100 µM in the assay on OVCAR-8 ovarian, above 100 µM with PC-3 prostate, above 100 µM in the assay on SK-MEL-28 melanoma and 32.4 µM in the assay on TK-10 renal.

`NS(=O)(=O)c1ccc(-n2nc3c(c2-c2ccc(Cl)cc2)Cc2ccccc2-3)cc1`: the GI50 is 4.7 µM in the assay with A498 renal; 30.4 µM in the assay on HOP-62 NSCLC; 4.98 µM in the assay with K-562 leukemia; 19 µM with LOX IMVI melanoma; 5.51 µM in the assay on MOLT-4 leukemia; 19.6 µM in the assay with NCI/ADR-RES ovarian. The GI50 in the assay with OVCAR-8 ovarian is 21.6 µM; with PC-3 prostate, 14 µM; in the assay with SK-MEL-28 melanoma it was 18.3 µM; in the assay with TK-10 renal, 19.5 µM. The TGI was determined as 19.1 µM in the assay with A498 renal; 49.4 µM in the assay on HOP-62 NSCLC; 17.2 µM in the assay with K-562 leukemia; 37.4 µM in the assay on LOX IMVI melanoma; 23.1 µM in the assay with MOLT-4 leukemia; 44.8 µM in the assay with NCI/ADR-RES ovarian. For the same compound, the TGI came out at 44 µM with OVCAR-8 ovarian, 27.9 µM in the assay on PC-3 prostate, 35 µM in the assay on SK-MEL-28 melanoma and 35.6 µM with TK-10 renal.

Turning to `COc1ccc(-c2ccncc2)cc1C(N)=O`, the GI50 was above 22.8 µM in the assay with A498 renal; above 25 µM in the assay with HOP-62 NSCLC; above 25 µM in the assay with K-562 leukemia; above 25 µM in the assay with LOX IMVI melanoma; above 25 µM in the assay on MOLT-4 leukemia; above 25 µM in the assay with NCI/ADR-RES ovarian. The GI50 with OVCAR-8 ovarian, in the assay on PC-3 prostate, with SK-MEL-28 melanoma and with TK-10 renal was above 25 µM each time. Further, the TGI in the assay on A498 renal, in the assay with HOP-62 NSCLC, in the assay with K-562 leukemia, with LOX IMVI melanoma, in the assay on MOLT-4 leukemia and in the assay on NCI/ADR-RES ovarian was above 25 µM in each case. Moreover, the TGI in the assay on OVCAR-8 ovarian, in the assay on PC-3 prostate, in the assay with SK-MEL-28 melanoma and in the assay on TK-10 renal was above 25 µM throughout.

With `Cc1nc(-c2ccccc2)n2nc(NCCCN3CCOCC3)ncc12`, the GI50 in the assay with A498 renal is 6.5 µM; in the assay with HOP-62 NSCLC, above 25 µM; in the assay on K-562 leukemia, above 25 µM; in the assay with LOX IMVI melanoma, 15.1 µM; in the assay on MOLT-4 leukemia it was above 25 µM; in the assay on NCI/ADR-RES ovarian, above 25 µM. Besides, the GI50 in the assay with OVCAR-8 ovarian is above 25 µM; in the assay on PC-3 prostate it was above 25 µM; in the assay with SK-MEL-28 melanoma it was above 25 µM; in the assay on TK-10 renal, 19.1 µM. Besides, the TGI in the assay with A498 renal, with HOP-62 NSCLC, in the assay with K-562 leukemia, with LOX IMVI melanoma, in the assay on MOLT-4 leukemia and in the assay with NCI/ADR-RES ovarian was above 25 µM each time. The TGI with OVCAR-8 ovarian, in the assay with PC-3 prostate, in the assay with SK-MEL-28 melanoma and in the assay with TK-10 renal was above 25 µM throughout.

As to `CN(CCCCCl)P(=O)(OCCS(=O)(=O)CC(NC(=O)CCC(N)C(=O)O)C(=O)NC(C(=O)O)c1ccccc1)OCC1OC(n2ccc(N)nc2=O)C(F)(F)C1O` (centres undefined), the GI50 in the assay with A498 renal was 0.943 µM; in the assay with HOP-62 NSCLC it was 0.0861 µM; with K-562 leukemia it was 1.58 µM; in the assay with LOX IMVI melanoma, 0.467 µM; in the assay with MOLT-4 leukemia, 0.146 µM; in the assay with NCI/ADR-RES ovarian, 0.0664 µM. The GI50 with OVCAR-8 ovarian is below 0.0172 µM; in the assay with PC-3 prostate, 5.24 µM; in the assay with SK-MEL-28 melanoma, 5.06 µM; in the assay with TK-10 renal it was 32.8 µM. Also, the TGI in the assay with A498 renal is above 100 µM; in the assay with HOP-62 NSCLC, above 85.9 µM; in the assay with K-562 leukemia, above 100 µM; with LOX IMVI melanoma, above 100 µM; in the assay on MOLT-4 leukemia, above 70.1 µM; with NCI/ADR-RES ovarian it was above 62.8 µM. The TGI in the assay with OVCAR-8 ovarian, in the assay with PC-3 prostate, with SK-MEL-28 melanoma and in the assay on TK-10 renal was above 100 µM in each case.

Take `Cc1ncc(C(=O)Nc2ccc(CN3CCN(C)CC3)c(C(F)(F)F)c2)cc1C#Cc1cnc2cccnn12`: the GI50 with A498 renal was 0.703 µM; in the assay with HOP-62 NSCLC, 0.423 µM; with K-562 leukemia it was 0.005 µM; with LOX IMVI melanoma it was 0.183 µM; in the assay on MOLT-4 leukemia it was 0.156 µM; with NCI/ADR-RES ovarian, 0.997 µM. For the same compound, the GI50 in the assay with OVCAR-8 ovarian was 0.339 µM; in the assay with PC-3 prostate, 0.651 µM; with SK-MEL-28 melanoma, 0.212 µM; in the assay on TK-10 renal, 0.797 µM. In addition, the TGI in the assay on A498 renal turned out to be 1.47 µM; in the assay on HOP-62 NSCLC it was 4.14 µM; in the assay on K-562 leukemia, 50 µM; with LOX IMVI melanoma, 0.672 µM; with MOLT-4 leukemia it was 5.32 µM; with NCI/ADR-RES ovarian it was 4.09 µM. The TGI in the assay with OVCAR-8 ovarian was determined as 5.98 µM; in the assay on PC-3 prostate it was 4.79 µM; with SK-MEL-28 melanoma, 1.84 µM; in the assay on TK-10 renal it was 5.81 µM.

As to `COc1cc(OC)c(C(=O)/C=C/c2cc3c(cc2OCc2ccccc2)OC(C)(C)CC3)cc1CC=C(C)C`, the GI50 in the assay on A498 renal is 5.42 µM; in the assay on HOP-62 NSCLC, 6.78 µM; in the assay on K-562 leukemia, 4.26 µM; in the assay with LOX IMVI melanoma, 3.25 µM; in the assay on MOLT-4 leukemia, 7.03 µM; in the assay with NCI/ADR-RES ovarian it was 6.89 µM. The GI50 in the assay with OVCAR-8 ovarian was 4.14 µM; with PC-3 prostate, 5.75 µM; with SK-MEL-28 melanoma it was 4.07 µM; in the assay with TK-10 renal it was 8.89 µM. The TGI in the assay on A498 renal was 21.8 µM; in the assay with HOP-62 NSCLC, 13.5 µM; in the assay with K-562 leukemia it was above 25 µM; in the assay with LOX IMVI melanoma, 7.17 µM; in the assay on MOLT-4 leukemia it was above 25 µM; in the assay on NCI/ADR-RES ovarian it was above 25 µM. The TGI with OVCAR-8 ovarian was above 25 µM; in the assay on PC-3 prostate, above 25 µM; with SK-MEL-28 melanoma it was 9.23 µM; in the assay with TK-10 renal, 19.6 µM.

Turning to `S=c1snc2n1CCN2`, the GI50 with A498 renal is 65 µM; with HOP-62 NSCLC it was above 100 µM; with K-562 leukemia it was above 100 µM; with LOX IMVI melanoma it was 81.7 µM; in the assay on MOLT-4 leukemia, 32.3 µM; in the assay on NCI/ADR-RES ovarian it was above 100 µM. Moreover, the GI50 was above 100 µM in the assay with OVCAR-8 ovarian, 65.4 µM in the assay on PC-3 prostate, 64.4 µM in the assay with SK-MEL-28 melanoma and above 100 µM in the assay with TK-10 renal. For the same compound, the TGI in the assay on A498 renal, with HOP-62 NSCLC, in the assay on K-562 leukemia, in the assay on LOX IMVI melanoma, with MOLT-4 leukemia and in the assay with NCI/ADR-RES ovarian was above 100 µM each time. In addition, the TGI with OVCAR-8 ovarian, with PC-3 prostate, with SK-MEL-28 melanoma and in the assay with TK-10 renal was above 100 µM in each case.

Turning to `CC(C)Nc1cc(-c2c[nH]c(C(=O)N[C@H](CO)c3cccc(Cl)c3)c2)c(Cl)cn1`, the GI50 with A498 renal was 0.084 µM and 0.255 µM; in the assay on HOP-62 NSCLC, 3.93 µM and 0.479 µM; in the assay with K-562 leukemia, 3.35 µM; in the assay with LOX IMVI melanoma, 0.157 µM and 0.316 µM; in the assay on MOLT-4 leukemia it was 2.55 µM and 2.57 µM; in the assay on NCI/ADR-RES ovarian, 5.57 µM and > 7.85 µM. The GI50 is 7.75 µM and 8.82 µM in the assay on OVCAR-8 ovarian; 3.96 µM and > 5.54 µM in the assay with PC-3 prostate; 0.126 µM and 0.0718 µM in the assay on SK-MEL-28 melanoma; 0.795 µM and 0.36 µM in the assay on TK-10 renal. The TGI in the assay with A498 renal is 1.41 µM and 1.95 µM; in the assay with HOP-62 NSCLC, 26.4 µM and > 10 µM; in the assay with K-562 leukemia, above 10 µM; in the assay on LOX IMVI melanoma, 12.8 µM and > 10 µM; in the assay with MOLT-4 leukemia it was 19.6 µM and > 10 µM; in the assay with NCI/ADR-RES ovarian it was 24.4 µM and > 10 µM. Besides, the TGI is 24.3 µM and > 10 µM in the assay with OVCAR-8 ovarian; 18.4 µM and > 10 µM with PC-3 prostate; 18.6 µM and > 10 µM in the assay with TK-10 renal.

Take `O=S(=O)(NC1=NCCN1C(=S)SN1CCn2c1nsc2=S)c1cccc2ccccc12`: the GI50 is 29.5 µM in the assay on A498 renal; 20.6 µM in the assay with HOP-62 NSCLC; 16.1 µM in the assay with K-562 leukemia; 20.4 µM with LOX IMVI melanoma; 16.5 µM with MOLT-4 leukemia; 45.5 µM with NCI/ADR-RES ovarian. Besides, the GI50 with OVCAR-8 ovarian was 17.5 µM; with PC-3 prostate it was 29.2 µM; with SK-MEL-28 melanoma, 58.6 µM; in the assay on TK-10 renal, 21.4 µM. Besides, the TGI was 78 µM in the assay with A498 renal; 54.3 µM in the assay with HOP-62 NSCLC; 44.6 µM in the assay on K-562 leukemia; 55 µM in the assay on LOX IMVI melanoma; 60.3 µM with MOLT-4 leukemia; above 100 µM with NCI/ADR-RES ovarian. Also, the TGI with OVCAR-8 ovarian is 43.8 µM; in the assay on PC-3 prostate, above 100 µM; with SK-MEL-28 melanoma, above 100 µM; in the assay on TK-10 renal, 64.8 µM.

Consider `COc1ccc2c(=O)cc(-c3ccccc3)[nH]c2c1`, for which the GI50 was 0.263 µM in the assay on A498 renal; 9.74 µM in the assay on HOP-62 NSCLC; 0.439 µM with K-562 leukemia; 4.17 µM in the assay with LOX IMVI melanoma; 1.25 µM with MOLT-4 leukemia; 0.547 µM in the assay on NCI/ADR-RES ovarian. For the same compound, the GI50 in the assay with OVCAR-8 ovarian was 2.64 µM; in the assay on PC-3 prostate it was 0.389 µM; with SK-MEL-28 melanoma, 7.84 µM; with TK-10 renal, above 100 µM. Also, the TGI in the assay with A498 renal is 5.32 µM; in the assay with HOP-62 NSCLC it was above 100 µM; in the assay with K-562 leukemia, above 100 µM; in the assay with LOX IMVI melanoma, above 100 µM; in the assay on MOLT-4 leukemia, above 100 µM; in the assay on NCI/ADR-RES ovarian, 6.15 µM. For the same compound, the TGI in the assay on OVCAR-8 ovarian was above 46.6 µM; with PC-3 prostate, above 100 µM; in the assay on SK-MEL-28 melanoma it was above 100 µM; with TK-10 renal, above 100 µM.
